According to US12528818B2, “Compositions and methods for inhibition of RAS” (Leidos Biomedical Research, Inc., priority 2021, dated 2026):

These compounds were tested on pERK in NCI-H358 cells (assay: Cell-based pERK HTRF assay (pERK inhibition in H358 cells)). Settings: Homo sapiens, NCI-H358, 0.5 h, pERK inhibition IC50, NCI-H358 cells, 30 min incubation; read-out: PERK in H358 cell.

Row | IC50 [µM] | Compound
1 | 0.1 to 1 | C=C(F)C(=O)N1C[C@H](C)N(c2nc(OC[C@]34CCCN3C[C@H](F)C4)nc3c(F)c(-c4ccc(F)c5sc(N)nc45)c(C(F)(F)F)cc23)C[C@H]1C [Compound 205]
2 | > 1 | CC#CC(=O)N(C)C1CN(c2nc(OCC34CCCN3CCC4)nc3c(F)c(-c4ccc(F)c5sc(N)nc45)c(Cl)cc23)C1 [Compound 172]
3 | 0.1 to 1 | C=C(F)C(=O)N1C[C@H](C)N(c2nc(OC[C@@]34CCCN3C[C@H](F)C4)nc3c(F)c(-c4ccc(F)c5sc(N)nc45)c(C(F)(F)F)cc23)C[C@H]1C [Compound 203]
4 | < 0.1 | C=CC(=O)N1CC(N(C)c2nc(OC[C@@]34CCCN3C[C@H](F)C4)nc3c(F)c(-c4ccc(F)c5sc(N)nc45)c(C(F)(F)F)cc23)C1 [Compound 223]
5 | 0.1 to 1 | C=CC(=O)N1CC[C@@H](N(CC)c2nc(OCC34CCCN3CCC4)nc3c(F)c(-c4ccc(F)c5sc(N)nc45)c(C(F)(F)F)cc23)C1 [Compound 249]
6 | < 0.1 | C=CC(=O)N1CCC(N(C)c2nc(OC[C@@]34CCCN3C[C@H](F)C4)nc3cc(-c4ccc(F)c5sc(N)c(C#N)c45)c(C#N)cc23)[C@H]1C (stereo partly drawn) [Compound 387, 4-((1-acryloyl-2-methylpyrrolidin-3-yl)(methyl)amino)-7-(2-amino-3-cyano-7-fluorobenzo[b]thiophen-4-yl)-2-(((2R,7aS)-2-fluorotetrahydro-1H-pyrrolizin-7a(5H)-yl)methoxy)quinazoline-6-carbonitrile]
7 | < 0.1 | C=CC(=O)N1CCC(N(C)c2nc(OC[C@@H]3C[C@@H](F)CN3C)nc3c(F)c(-c4ccc(F)c5sc(N)c(C#N)c45)c(C(F)(F)F)cc23)[C@H]1C (some centres unmarked) [Compound 399]
8 | < 0.1 | C=CC(=O)N1[C@@H](C)CN(c2nc(OC[C@@]34CCCN3C[C@H](OC)C4)nc3c(F)c(-c4ccc(F)c5sc(N)c(C#N)c45)c(C(F)(F)F)cc23)C[C@@H]1C (atropisomer, axis not shown) [Compound 364]
9 | < 0.1 | C=CC(=O)N1CCN(c2nc(OC[C@@]34CCCN3C[C@H](F)C4)nc3c(F)c(-c4ccc(F)c5sc(N)nc45)c(C(F)(F)F)cc23)C[C@H]1C [Compound 207]
10 | < 0.1 | C=CC(=O)N1C[C@H](C)N(c2nc(OC[C@]34CCCN3C[C@@H](F)C4)nc3c(F)c(-c4ccc(F)c5sc(N)c(C#N)c45)c(C(F)(F)F)cc23)C[C@H]1C [Compound 334]
11 | 0.1 to 1 | C=CC(=O)N1CCC(N(C)c2nc(OC[C@@H]3C[C@@H](F)CN3C)nc3c(F)c(-c4ccc(F)c5sc(N)c(C#N)c45)c(Cl)cc23)[C@H]1C (some centres unmarked) [Compound 449]
12 | < 0.1 | C=CC(=O)N1CCC(N(CC)c2nc(OC[C@@]34CCCN3C[C@H](F)C4)nc3c(F)c(-c4ccc(F)c5sc(N)c(C#N)c45)ccc23)[C@H]1C (some centres unmarked) [Compound 421]
13 | < 0.1 | C=CC(=O)N1CCN(c2nc(OCC34CCCN3CCC4)nc3c(F)c(-c4ccc(F)c5sc(N)nc45)c(Cl)cc23)CC1 [Compound 67]
14 | 0.1 to 1 | C=CC(=O)N1CCCC(Nc2nc(OC[C@@H]3CCCN3C)nc3c(F)c(-c4ccc(F)c5sc(N)nc45)c(Cl)cc23)C1 (some centres unmarked) [Compound 54]
15 | 0.1 to 1 | C=CC(=O)N1CCC(N(C)c2nc(OC[C@@]34CCCN3C[C@H](F)C4)nc3c(Cl)c(-c4ccc(F)c5sc(N)c(C#N)c45)c(C#N)cc23)[C@H]1C (some centres unmarked) [Compound 425]
16 | < 0.1 | C=CC(=O)N1CC[C@@H](N(C)c2nc(OC[C@@H]3CC(C)(C)CN3C)nc3c(F)c(-c4ccc(F)c5sc(N)nc45)c(C(F)(F)F)cc23)C1 [Compound 265]
17 | < 0.1 | C=CC(=O)N1C[C@H](C)N(c2nc(OC[C@@H]3C[C@@H](F)CN3C)nc3c(F)c(-c4ccc(F)c5sc(N)c(C#N)c45)c(C(F)(F)F)cc23)C[C@H]1C [Compound 406]
18 | < 0.1 | C=CC(=O)N1CC[C@@H]2[C@H]1CN2c1nc(OC[C@@H]2C[C@@H](F)CN2C)nc2c(F)c(-c3ccc(F)c4sc(N)nc34)c(C(F)(F)F)cc12 [Compound 138]
19 | < 0.1 | C=CC(=O)N1C[C@@H](F)[C@@H](N(C)c2nc(OC[C@@H]3C[C@@H](OC)CN3C)nc3cc(-c4ccc(F)c5sc(N)c(C#N)c45)c(C(F)(F)F)cc23)C1 [Compound 361]
20 | < 0.1 | C=CC(=O)N1C[C@@H](F)[C@@H](N(CC)c2nc(OCC34CCCN3CCC4)nc3cc(-c4ccc(F)c5sc(N)c(C#N)c45)c(C(F)(F)F)cc23)C1 [Compound 376]
21 | < 0.1 | C=CC(=O)N1CCC(N(C)c2nc(OC[C@@H]3C[C@@H](OC)CN3C)nc3c(F)c(-c4ccc(F)c5sc(N)c(C#N)c45)c(C(F)(F)F)cc23)[C@H]1C (some centres unmarked) [Compound 407]
22 | < 0.1 | C=CC(=O)N1C[C@H](C)N(c2nc(OC[C@@]34CCCN3C[C@H](OC)C4)nc3c(F)c(-c4ccc(F)c5sc(N)c(C#N)c45)c(C(F)(F)F)cc23)C[C@H]1C [Compound 341]

Row | IC50 [µM] | Compound
23 | > 1 | C=CC(=O)N1CC(Nc2nc(OC[C@@H]3CCCN3C)nc3c(F)c(-c4ccc(F)c5sc(N)nc45)ncc23)C1 [Compound 43]
24 | 0.1 to 1 | C=CC(=O)N1CC[C@@H]2[C@H]1CN2c1nc(OCC23CCCN2CCC3)nc2c(F)c(-c3ccc(F)c4sc(N)nc34)c(C(F)(F)F)cc12 [Compound 166]
25 | > 1 | C=CC(=O)N1CCN(c2nc(OCC34CCCN3CCC4)nc3c(F)c(-c4ccc(F)c5sc(N)nc45)c(-c4ccoc4)cc23)CC1 [Compound 119]
26 | < 0.1 | C=CC(=O)N1C[C@@H](F)[C@@H](N(C)c2nc(OCC34CCCN3CCC4)nc3c(F)c(-c4ccc(F)c5sc(N)c(C#N)c45)c(C(F)(F)F)cc23)C1 [Compound 374]
27 | > 1 | C=CC(=O)N1CCN(c2nc(OCC34CCCN3CCC4)nc3c(F)c(-c4ccc(F)c5sc(N)nc45)c(C(C)(F)F)cc23)CC1 [Compound 284]
28 | > 1 | C=CC(=O)N1CCN(c2ncnc3c(F)c(-c4ccc(F)c5sc(N)nc45)c(CC#N)cc23)CC1 [Compound 72]
29 | 0.1 to 1 | C=CC(=O)N1CC(N(C)c2nc(OCC34CCCN3CCC4)nc3c(F)c(-c4ccc(F)c5sc(N)nc45)c(Cl)cc23)C1 [Compound 84, 1-(3-((7-(2-amino-7-fluorobenzo[d]thiazol-4-yl)-6-chloro-8-fluoro-2-((tetrahydro-1H-pyrrolizin-7a(5H)-yl)methoxy)quinazolin-4-yl)(methyl)amino)azetidin-1-yl)prop-2-en-1-one]
30 | < 0.1 | C=CC(=O)N1CCN(c2nc(OC[C@]34CCCN3C[C@H](F)C4)nc3c(F)c(-c4ccc(F)c5sc(N)nc45)c(C(F)(F)F)cc23)[C@H](C)C1 [Compound 196]
31 | < 0.1 | C=CC(=O)N1C[C@@H](F)[C@@H](N(CC)c2nc(OC[C@@]34CCCN3C[C@H](F)C4)nc3c(C#N)c(-c4ccc(F)c5sc(N)c(C#N)c45)c(Cl)cc23)C1 [Compound 380]
32 | 0.1 to 1 | C=CC(=O)N1CC[C@@H](N(C)c2ncnc3c(F)c(-c4ccc(F)c5sc(N)nc45)c(C(F)(F)F)cc23)C1 [Compound 225]
33 | 0.1 to 1 | C=CC(=O)N1CCC(N(C)c2nc(OC[C@@H]3CCCN3C)nc3c(F)c(-c4ccc(F)c5sc(N)c(C#N)c45)ccc23)[C@H]1COC (some centres unmarked) [Compound 432]
34 | < 0.1 | C=CC(=O)N1C[C@H](C)N(c2nc(OCC34CCCN3CCC4)nc3c(F)c(-c4ccc(F)c5sc(N)c(C#N)c45)c(Cl)cc23)C[C@H]1C [Compound 366]
35 | < 0.1 | C=CC(=O)N1C[C@H](C)N(c2nc(OC[C@@]34CCCN3C[C@H](OC)C4)nc3c(F)c(-c4ccc(F)c5sc(N)nc45)c(C(F)(F)F)cc23)C[C@H]1C (atropisomer, axis not shown) [Compound 289]
36 | < 0.1 | C=CC(=O)N1C[C@H](C)N(c2nc(OCC34CCCN3CCC4)nc3c(F)c(-c4ccc(F)c5sc(N)nc45)c(C(F)(F)F)cc23)C[C@H]1C [Compound 281]
37 | > 1 | C=CC(=O)N1CC(N(c2nc(OC[C@]34CCCN3C[C@H](F)C4)nc3c(F)c(-c4ccc(F)c5sc(N)nc45)c(Cl)cc23)C2CC2)C1 [Compound 210]
38 | < 0.1 | C=CC(=O)N1CCN(c2c(C#N)c(OC[C@@]34CCCN3C[C@H](F)C4)nc3c(F)c(-c4ccc(F)c5sc(N)nc45)c(Cl)cc23)CC1 [Compound 200]
39 | < 0.1 | C=CC(=O)N1C[C@H](C)N(c2nc(OC[C@@]34CCCN3C[C@H](F)C4)nc3c(F)c(-c4ccc(F)c5sc(N)nc45)c(C#N)cc23)C[C@H]1C [Compound 326]
40 | 0.1 to 1 | C=CC(=O)N1C[C@H](C)N(c2nc(OC[C@@]34CCCN3C[C@H](F)C4)nc3c(F)c(-c4ccc(F)c5sc(NC(C)=O)c(C#N)c45)c(C(F)(F)F)cc23)C[C@H]1C [Compound 378]
41 | < 0.1 | C=CC(=O)N1C[C@H](C)N(c2nc(OC[C@@]34CCCN3C[C@@H](F)C4)nc3c(F)c(-c4ccc(F)c5sc(N)nc45)c(C(F)(F)F)cc23)C[C@H]1C [Compound 219]
42 | < 0.1 | C=CC(=O)N1C[C@H](C)N(c2nc(OC[C@]34CCCN3C[C@H](OC)C4)nc3c(F)c(-c4ccc(F)c5sc(N)nc45)c(C(F)(F)F)cc23)C[C@H]1C [Compound 269]
43 | < 0.1 | C=CC(=O)N1CCN(c2nc(OC[C@]34CCCN3C[C@H](F)C4)nc3c(F)c(-c4ccc(F)c5sc(N)nc45)c(C(F)(F)F)cc23)[C@@H](C)C1 [Compound 177]

Same assay, conditions: pERK inhibition IC50, NCI-H358 cells, 30 min incubation; read-out: PERK in H358 cell

Row | IC50 [µM] | Compound
44 | < 0.1 | C=CC(=O)N1C[C@H](C)N(c2nc(OC[C@@]34CCCN3C[C@H](OC)C4)nc3c(F)c(-c4ccc(F)c5sc(N)nc45)c(C(F)(F)F)cc23)C[C@H]1C [Compound 297]
45 | 0.1 to 1 | C=CC(=O)N1CC[C@@H](N(C)c2nc(OC[C@@]34CCCN3C[C@H](F)C4)nc3c(F)c(-c4ccc(F)c5sc(N)nc45)c(C(F)(F)F)cc23)C1 (single isomer, unassigned) [Compound 240]
46 | < 0.1 | C=CC(=O)N1C[C@H](C)N(c2nc(OC[C@@]34CCCN3C[C@H](F)C4)nc3c(F)c(-c4ccc(F)c5sc(N)nc45)c(C(F)(F)F)cc23)C[C@H]1C (atropisomer, axis not shown) [Compound 268]
47 | > 1 | C=CC(=O)N1CC[C@@H](Nc2nc(OC[C@@]34CCCN3C[C@H](F)C4)nc3c(F)c(-c4ccc(F)c5sc(N)nc45)c(C(F)(F)F)cc23)C1 (single isomer, unassigned) [Compound 272]
